According to a melting point compilation (Tetko et al.; mined from patent text by program, amines drawn as free bases though some values may be those of a salt):

| SMILES | melting point |
| --- | --- |
| CCOP(=O)(OCC)c1cccc2c(P(=O)(OCC)OCC)cccc12 | 169 to 171 °C |
| Nc1cc(=O)n(Cc2ccccc2[N+](=O)[O-])[nH]1 | 190 °C |
| CN(C)CCCNC(=O)c1cccc(-c2nnc(CSCCOc3ccccc3)o2)c1 | 88 to 90 °C |
| Cc1c(C)c2c(c(C)c1OCc1ccccc1)C(c1ccc(C(C)C)cc1)C(C)(C)O2 (centres undefined) | 79 to 81 °C |
| CCN(CC)CCOC(=C1C2CC3C(C2)C13)c1ccccc1 | 120 to 123 °C |
| Cc1cnc(N2CCC(c3ccc([N+](=O)[O-])cc3)CC2)n1C | 178 to 179 °C |
| COc1ccc(S(=O)(=O)Nc2ccccc2NC(=O)c2ccccc2[N+](=O)[O-])cc1 | 168 to 170 °C |
| Cc1nn(-c2ccc(Cl)c3c2CC(C)O3)c(=O)[nH]1 (centres undefined) | 208 to 209 °C |
| O=C(Nc1cnc2cc[nH]c2c1)c1cc2cc(F)ccc2n1Cc1cccc(F)c1 | 277 to 278 °C |
| CCCCCCCCSC(=O)CS(=O)(=O)Nc1c(C(C)C)cccc1C(C)C | 51 to 52 °C |
| CN1CN(C(=O)c2c(F)cccc2F)C(=O)N(c2ccc(Cl)cc2)C1 | 140 °C |
| CC(=O)NC[C@H]1CN(c2ccc(C3=CCOCC3)c(F)c2)C(=O)O1 | 148 to 151 °C |
| O=C(O)c1ccc(C2CCNCC2)cc1 | > 270 °C |
| CC(C)N(C(=O)c1c(Cl)cccc1[Si](C)(C)C)C(C)C | 96 to 97.5 °C |
| CCOC(=O)c1ccc2c(c1)C(=O)NC(C(Cl)(Cl)Cl)N2 (centres undefined) | 243 to 244 °C |
| Cc1ccc(S(=O)(=O)NC(=O)OCCc2ccc(-n3c(CCC(=O)c4cccnc4)nc4cc(C(F)(F)F)c(Cl)cc43)cc2)cc1 | 89 to 95 °C |
| CN1C(=O)CCC2(C)C1=CCc1cc(F)ccc12 (centres undefined) | 110 to 111 °C |
| CC(C)CCC1(c2ccccc2)CC(O)=C(Sc2ccccc2C(=O)O)C(=O)O1 (centres undefined) | 99 to 101 °C |
| CCOC(=O)C[C@@H](NC(=O)/C=C/S(=O)(=O)c1ccccc1)C(=O)OCC | 112 to 115 °C |
| CCOc1ccc(C(O)CN2CCOCC2)cc1-c1nc2c(C)cccc2c(=O)[nH]1 (centres undefined) | 145 to 147 °C |
| COc1ccc(-c2[nH]cc(C(C)=O)c2N)cc1 | 198 to 200 °C |
| O=C1c2ccccc2C(=O)N1Cc1noc(-c2ncn3c2[C@@H]2CCN2C(=O)c2cc(F)ccc2-3)n1 | 287 to 288 °C |
| COC(=O)COc1cccc2c(CCBr)c(C)oc12 | 146 to 148 °C |
| CC(=O)OC1CCCC2=CCC3C4CCC(C(C)CCCC(C)C)C4(C)CCC3C21C (centres undefined) | 65 to 66 °C |
| O=S(=O)(Nc1cccc(CCOCc2ccc(-c3ccc(OC(F)(F)F)cc3)cc2F)c1)C(F)(F)F | 114 to 115 °C |

| SMILES | melting point |
| --- | --- |
| CCCCc1oc2ccc(-c3nc(C)no3)cc2c1C(=O)c1ccc(O)cc1 | 180 to 182 °C |
| COC(=O)c1ccc(C(=O)OC)c(S(N)(=O)=O)c1 | 165 to 170 °C |
| FC(F)(F)C(F)(F)C(F)(F)C(F)(F)C(F)(F)C(F)(F)C(F)(F)C(F)(F)C(F)(F)C(F)(F)C(F)(F)Br | 96 to 98 °C |
| Cn1ccnc1-c1ccc(-c2cnc([C@H](Cc3ccccn3)N(C=O)OC(C)(C)C)n2C)cc1 | 160 to 163 °C |
| O=C1c2cc(Br)ccc2COc2ccc(Br)cc21 | 193 to 194 °C |
| O=C(Nc1ccc(Oc2ccnc(N3CCCC(O)C3)n2)c2ccccc12)c1cc(F)cc(N2CCOCC2)c1 (centres undefined) | 180 to 181 °C |
| CN1CCN(C(=O)Cn2c(-c3cc(Cl)ccn3)nc3cccnc32)CC1 | 174 to 175 °C |
| O=S(c1nc2ccccc2s1)N1CCOCC1 (centres undefined) | 93 to 94 °C |
| COC(=O)C1=Cc2cc(-c3ccc4c(c3)OCO4)ccc2SCC1 | 126 to 129 °C |
| CCOC(=O)c1c(CN(C)c2ccccc2)nc2cc(OC)c(OC)cc2c1-c1ccc(OC)c(OC)c1 | 194 to 196 °C |
| CC(=O)Nc1nc(CCc2ccc(NC(=O)OC(C)(C)C)cc2)c(C(=O)Nc2ccccc2)s1 | 199 to 200 °C |
| COc1cc(C#N)ccc1Cc1cn(C)c2ccc([N+](=O)[O-])cc12 | 200 to 201 °C |
| CC(C)(Cn1c(CO)nc2c(N)nc3ccccc3c21)CS(C)(=O)=O | 230 to 232 °C |
| N#Cc1cccc2nc(N[C@@H]3CCc4ccccc43)ccc12 | 150 °C |
| CCC(C)COc1ccc(-c2ccc(O)c(Br)c2)cc1 (centres undefined) | 49.4 °C |
| COCC(OC(N)=O)c1nc2cc(F)c(OC(C)c3c(Cl)ccc(F)c3Cl)cc2s1 (centres undefined) | 200 to 205 °C |
| CC(=O)c1ccc(S(=O)(=O)NC(C)(C)C(=O)O)cc1 | 157 to 158 °C |
| CS(=O)(=O)c1cccnc1CC1C(=O)C2(COc3cc4c(cc32)OCCO4)c2ccccc21 (centres undefined) | > 250 °C |
| COC1C=C(C)C2(OC(=O)c3ccc([N+](=O)[O-])cc3)CC(C)(C)C1O2 (centres undefined) | 95 to 95.5 °C |
| CCCC(Nc1ccc(OCc2ccccc2)cc1)C(=O)OCC (centres undefined) | 68 °C |
| Nc1cc(=O)[nH]c2c1cnn2-c1ccccc1 | 223 to 225 °C |
| Cc1cc(-c2cc(C(=O)O)c(=O)n(CC(C)C)n2)ccc1F | 129 to 132 °C |
| CCOc1cc2c(cc1OC)C(c1cnc(OC)nc1)=N[C@@H]1CC[C@@H](O)C[C@H]21 | 124 °C |
| CC(O)Cn1nc2c3c(cc(N)cc31)CCC2 (centres undefined) | 125 to 127 °C |
| OCC(=C(c1ccc(F)cc1)c1ccc(F)cc1)c1nnn(C(c2ccccc2)(c2ccccc2)c2ccccc2)n1 | 176 to 178 °C |

| SMILES | melting point |
| --- | --- |
| CCN(C)c1nc(-c2cc(OC)cc(OC)c2)nc2sc(C#N)c(C)c12 | 145 to 148 °C |
| O=C(Nc1cccc(F)c1F)c1ccc(-n2nc(C(F)(F)F)cc2C2CC2)c(F)c1 | 175 to 180 °C |
| CCc1ccnc(C(=O)c2[nH]c3ccc(Cl)cc3c2CC(=O)O)c1Cl | 220 °C |
| CS(=O)(=O)c1ccc(-c2cnn(CC(=O)c3ccc(Cl)cc3)c(=O)c2-c2ccc(F)cc2)cc1 | 186 to 188 °C |
| NC(=O)Cc1c(Cl)cnc2c(NC(=O)c3c(Cl)cccc3Cl)cccc12 | > 300 °C |
| CCN(CC)S(=O)(=O)c1ccc(C#CC(C)(O)C(F)(F)F)cc1 (centres undefined) | 140 to 144 °C |
| O=[N+]([O-])c1ccc(Cl)c(N=Cc2ccccc2O)c1 | 168 to 169 °C |
| CCNC(=O)c1c(Cl)ccc(N(C)C)c1[Si](C)(C)C | 179 to 180 °C |
| CC(C)(CCCCCCCCCCC(C)(C)C(Cl)(Cl)C(=O)O)C(Cl)(Cl)C(=O)O | 154 °C |
| CCOC(=O)/C(CCO)=C(\c1ccc(Cl)cc1)c1ccc(S(C)(=O)=O)cc1 | 128 °C |
| CC(=O)Oc1cc2c(c3ccccc13)Nc1ccccc1S2=O (centres undefined) | 179 to 181 °C |
| O=Cc1ccccc1-c1nnn[nH]1 | 130 °C |
| NC(=O)N1CCSC1c1ccccc1OCCN1CCN(c2cccc(F)c2)CC1 (centres undefined) | 142 to 143 °C |
| COc1ccc2cc(-c3ccc(OCC(O)CNC(C)C)cc3)n(C)c(=O)c2c1 (centres undefined) | 140 to 142 °C |
| S=C1Nc2ccccc2Cn2cccc21 | 228 to 231 °C |
| CCc1nn(Cc2cccnn2)c(C(N)=O)c1N | 171 to 174 °C |
| COc1ccc(C(=O)Nc2ccc3cccnc3n2)cc1 | 150 °C |
| COc1cc2c(cc1F)C(CCCN1CCN(C)CC1)(c1ccccc1F)C(=O)N2S(=O)(=O)c1ccc(OC(C)C)cc1 (centres undefined) | 72 °C |
| CCOC(=O)CC(=O)c1c(F)cc(Br)cc1F | 49 to 52 °C |
| O=C(Nc1cccnc1Cl)c1ccco1 | 102 °C |
| CC1=C(C(=O)NN)C(c2ccccc2Cl)c2c[nH]nc2N1 (centres undefined) | 220 °C |
| N#CC(c1ccccc1)(c1ccccc1)[C@H]1CCCN(CCc2ccc3c(c2)CCO3)C1 | 137 to 140 °C |
| O=c1cc(-c2ccc3ccccc3c2)[nH]c2ccccc12 | 290 to 292 °C |
| COc1ccc2c(c1)CCC1C2CCC2(C)C(=O)CCC12 (centres undefined) | 128 to 131 °C |
| CC(C)(C)NC(=O)c1nn(-c2ccc(Cl)cc2)c2c1[C@@H]1CC[C@H]2C1 | 159 to 162 °C |

| SMILES | melting point |
| --- | --- |
| O=C1c2ccc([N+](=O)[O-])cc2CC1Br (centres undefined) | 88.5 to 90.5 °C |
| CCCCCCCCCCCCC1=C(O)C(=O)c2c(Cl)cccc2C1=O | 102 to 104 °C |
| Cc1sc2c(I)c3ccccc3c(-c3ccc(OS(C)(=O)=O)cc3)c2c1C | 212 to 213 °C |
| Cc1oc(-c2ccccc2)nc1CCOc1ccc(C[C@@H](C(=O)O)n2cccc2)cc1 | 155 to 156 °C |
| COc1cc(C=O)cc(C(F)(F)F)c1O | 151 to 152 °C |
| COc1cc(CNC(=O)c2ccc(Cl)cc2OCC(=O)O)cc(OC)c1 | 163 °C |
| COc1ccnc(CSc2nc3cc4c(cc3[nH]2)OC(F)(F)O4)c1OC | 185 to 187 °C |
| CC1CCc2c(c3c(O)cc(C(C)CCCc4ccc(F)cc4)cc3oc2=O)C1 (centres undefined) | 127 to 129 °C |
| CCc1ccc(C(=O)Nc2ccc(F)c(F)c2)cc1N | 108 to 110 °C |
| O=C1NCCc2c(-c3ccccc3CCCO)[nH]c3cccc1c23 | 234 °C |
| Oc1ccc(-c2ncc3ncc(-c4ccncc4)cc3n2)cc1 | > 268 °C |
| CC1CCC(Nc2ccccc2)c2nccc(=O)n21 (centres undefined) | 160 to 162 °C |
| Cc1c(C)c2c(c(C)c1NC(=O)NC(C)(C)C)C(c1ccc(C(C)C)cc1)CO2 (centres undefined) | 201 to 202 °C |
| CS(=O)(=O)ON1C(=O)CCC1=O | 148 to 150 °C |
| CCCCCCCCCCCCCCCCN(C(=O)c1ccc(Cl)c([N+](=O)[O-])c1)c1ccccc1[N+](=O)[O-] | 83 to 85 °C |
| O=Cc1cn(Cc2ccc(Cl)cc2)nc1CN1CCC(c2ccccc2)(c2ccccc2)CC1 | 133 to 134 °C |
| N#Cc1ccc(OCCOc2ccc(C#N)cc2)cc1 | 196 to 197 °C |
| N#CC(Cc1ccccc1)=NNc1ccc([N+](=O)[O-])cc1 | 158 to 160 °C |
| C[C@](N)(CO)CCc1ccc2oc(-c3ccccc3)nc2c1 | 128 °C |
| O=C(O)c1cn(-c2ccc(F)cc2F)c2nc(Cl)c(F)cc2c1=O | 242 to 244 °C |
| CC(=O)NCCc1c[nH]c2ccc(OC(=O)Oc3ccc([N+](=O)[O-])cc3)cc12 | 153 to 156 °C |
| CC(C)c1cccc([N+](=O)[O-])c1C#N | 121 to 124 °C |
| COC(=O)/C(=C/C=C/c1cc2ccccc2n1C)OC | 93 to 94 °C |
| CCCc1nn(C)c2c(=O)n(CCCOc3ccc(SC(C)(C)C(=O)OCC)cc3)c(C)nc12 | 52 to 54 °C |
